# Values of other authors in patent publication US12377214B2 (priority 2016, dated 2025).
# System: BIS index
# Conditions: in vivo
smiles,measurement,value
CC(C)c1cccc(C(C)C)c1O [propofol],"Cp50 (interaction model parameter, effect site concentration of propofol)",4.47
